According to ChEMBL document CHEMBL3352631, “The identification of 7-[(R)-2-((1S,2S)-2-benzyloxycyclopentylamino)-1-hydroxyethyl]-4-hydroxybenzothiazolone as an inhaled long-acting β2-adrenoceptor agonist” (Bioorg Med Chem Lett, 2014):

Tests used:
[1] = Lipophilicity, logD of the compound at pH 7.4 by chromatographic method; format: physicochemical; details: buffer
[2] = test system: Rattus norvegicus; experiment: Volume of distribution at steady state in rat at 2.1 umol/kg, iv; format: ADME, organism-based; details: in vivo
[3] = test system: Rattus norvegicus; experiment: Volume of distribution at steady state in rat at 5 umol/kg, iv; format: ADME, organism-based; details: in vivo

chromatographic logD [1] | Vdss [2] [L/h/kg] | Vdss [3] [L/h/kg] | Structure (SMILES)
1.25 | 0.372 | – | O=c1[nH]c2c(O)ccc([C@@H](O)CN[C@H]3CCC[C@@H]3OCc3ccccc3)c2s1
1.77 | – | 0.246 | CCc1cc2c(cc1CC)CC(NC[C@H](O)c1ccc(O)c3[nH]c(=O)ccc13)C2 [INDACATEROL]
